Measured values published in ChEMBL document CHEMBL4354856, “Discovery of 4,6-O-Thenylidene-β-d-glucopyranoside-(2″-acetamido, 3″-acetyl-di-S-5-fluorobenzothizole/5-fluorobenzoxazole)-4'-demethylepipodophyllotoxin as Potential Less Toxic Antitumor Candidate Drugs by Reducing DNA Damage and Less Inhibition of PI3K” (J Med Chem, 2020).
Active and inactive are the calls of the source. The calls are words filed in the database; no cut-off is given here.

Key:
HMEC [1] = test: Cytotoxicity against human HMEC cells assessed as inhibition of cell proliferation measured after 48 hrs by MTT assay; format: cell-based
MCF7 = test: Anticancer activity against human MCF7 cells assessed as inhibition of cell proliferation measured after 48 hrs by MTT assay; format: functional, cell-based; conditions: MCF7, 48 h
MRC5 [2] = test: Cytotoxicity against human MRC5 cells assessed as inhibition of cell proliferation measured after 48 hrs by MTT assay; format: cell-based; conditions: MRC5, 48 h
L02 [3] = test: Cytotoxicity against human HL7702 cells assessed as inhibition of cell proliferation measured after 48 hrs by MTT assay; format: cell-based; conditions: L02, 48 h
HepG2 [4] = test: Anticancer activity against human HepG2 cells assessed as inhibition of cell proliferation measured after 48 hrs by MTT assay; format: functional, cell-based; conditions: HepG2, 48 h
A549 = test: Anticancer activity against human A549 cells assessed as inhibition of cell proliferation measured after 48 hrs by MTT assay; format: functional, cell-based; conditions: A549, 48 h
HeLa = test: Anticancer activity against human HeLa cells assessed as inhibition of cell proliferation measured after 48 hrs by MTT assay; format: functional, cell-based
[5] = Cytotoxicity against human H8 cells assessed as inhibition of cell proliferation measured after 48 hrs by MTT assay; format: cell-based
HepG2 [6] = test: Cell cycle arrest in human HepG2 cells assessed as accumulation at G2/M phase at 5 uM after 24 hrs by propidium staining based flow cytometry analysis relative to control; format: functional
HepG2 [7] = test: Cell cycle arrest in human HepG2 cells assessed as accumulation at G2/M phase at 20 uM after 36 hrs by propidium staining based flow cytometry analysis relative to control; format: functional
L02 [8] = test: Cell cycle arrest in human HL7702 cells assessed as accumulation at G2/M phase at 50 uM after 42 hrs by propidium staining based flow cytometry analysis relative to control; conditions: l02, 42 h
L02 [9] = test: Cell cycle arrest in human HL7702 cells assessed as accumulation at G2/M phase at 5 uM after 30 hrs by propidium staining based flow cytometry analysis; conditions: l02, 30 h
HepG2 [10] = test: Induction of apoptosis in human HepG2 cells assessed as apoptotic cells at 20 uM measured after 42 hrs by Annexin-V/propidium iodide staining based flow cytometry analysis relative to control; format: functional
L02 [11] = test: Induction of apoptosis in human HL7702 cells assessed as apoptotic cells at 50 uM measured after 42 hrs by Annexin-V/propidium iodide staining based flow cytometry analysis relative to control; format: cell-based; conditions: l02, 42 h
[12] = Acute toxicity in C57BL6 mouse assessed as lethality at 100 mg/kg, ip administered for 4 days; format: organism-based; conditions: in vivo, 96 h
[13] = Acute toxicity in ip dosed C57BL6 mouse assessed as mouse survival administered as single dose for 3 days and monitored for 20 days by Bliss method; format: organism-based; conditions: in vivo
HepG2 [14] = test: Antitumor activity against human HepG2 xenografted in ip dosed BALB/c nude mouse administered for 20 days and measured after 20 days by electronic caliper method; format: functional; conditions: 480 h
HepG2 [15] = test: Antitumor activity against human HepG2 xenografted in BALB/c nude mouse assessed as tumor volume at 30 mg/kg, ip administered for 20 days and measured after 20 days by electronic caliper method (reference value: 960.20 +/- 32.10 mm3); format: functional
HepG2 [16] = test: Antitumor activity against human HepG2 xenografted in BALB/c nude mouse assessed as tumor growth inhibition at 30 mg/kg, ip administered for 20 days and measured after 20 days by electronic caliper method relative to control; format: functional; conditions: 480 h, read-out: TGI
[17] = target: DNA topoisomerase 2-alpha (Homo sapiens) (UniProt P11388); test: Inhibition of human topoisomerase-2alpha mediated decatenation at 25 uM using kinetoplast DNA as substrate after 30 mins in presence of ATP by ethidium bromide staining-based UV imaging analysis
Sequence of DNA topoisomerase 2-alpha (Homo sapiens) (P11388 whole entry): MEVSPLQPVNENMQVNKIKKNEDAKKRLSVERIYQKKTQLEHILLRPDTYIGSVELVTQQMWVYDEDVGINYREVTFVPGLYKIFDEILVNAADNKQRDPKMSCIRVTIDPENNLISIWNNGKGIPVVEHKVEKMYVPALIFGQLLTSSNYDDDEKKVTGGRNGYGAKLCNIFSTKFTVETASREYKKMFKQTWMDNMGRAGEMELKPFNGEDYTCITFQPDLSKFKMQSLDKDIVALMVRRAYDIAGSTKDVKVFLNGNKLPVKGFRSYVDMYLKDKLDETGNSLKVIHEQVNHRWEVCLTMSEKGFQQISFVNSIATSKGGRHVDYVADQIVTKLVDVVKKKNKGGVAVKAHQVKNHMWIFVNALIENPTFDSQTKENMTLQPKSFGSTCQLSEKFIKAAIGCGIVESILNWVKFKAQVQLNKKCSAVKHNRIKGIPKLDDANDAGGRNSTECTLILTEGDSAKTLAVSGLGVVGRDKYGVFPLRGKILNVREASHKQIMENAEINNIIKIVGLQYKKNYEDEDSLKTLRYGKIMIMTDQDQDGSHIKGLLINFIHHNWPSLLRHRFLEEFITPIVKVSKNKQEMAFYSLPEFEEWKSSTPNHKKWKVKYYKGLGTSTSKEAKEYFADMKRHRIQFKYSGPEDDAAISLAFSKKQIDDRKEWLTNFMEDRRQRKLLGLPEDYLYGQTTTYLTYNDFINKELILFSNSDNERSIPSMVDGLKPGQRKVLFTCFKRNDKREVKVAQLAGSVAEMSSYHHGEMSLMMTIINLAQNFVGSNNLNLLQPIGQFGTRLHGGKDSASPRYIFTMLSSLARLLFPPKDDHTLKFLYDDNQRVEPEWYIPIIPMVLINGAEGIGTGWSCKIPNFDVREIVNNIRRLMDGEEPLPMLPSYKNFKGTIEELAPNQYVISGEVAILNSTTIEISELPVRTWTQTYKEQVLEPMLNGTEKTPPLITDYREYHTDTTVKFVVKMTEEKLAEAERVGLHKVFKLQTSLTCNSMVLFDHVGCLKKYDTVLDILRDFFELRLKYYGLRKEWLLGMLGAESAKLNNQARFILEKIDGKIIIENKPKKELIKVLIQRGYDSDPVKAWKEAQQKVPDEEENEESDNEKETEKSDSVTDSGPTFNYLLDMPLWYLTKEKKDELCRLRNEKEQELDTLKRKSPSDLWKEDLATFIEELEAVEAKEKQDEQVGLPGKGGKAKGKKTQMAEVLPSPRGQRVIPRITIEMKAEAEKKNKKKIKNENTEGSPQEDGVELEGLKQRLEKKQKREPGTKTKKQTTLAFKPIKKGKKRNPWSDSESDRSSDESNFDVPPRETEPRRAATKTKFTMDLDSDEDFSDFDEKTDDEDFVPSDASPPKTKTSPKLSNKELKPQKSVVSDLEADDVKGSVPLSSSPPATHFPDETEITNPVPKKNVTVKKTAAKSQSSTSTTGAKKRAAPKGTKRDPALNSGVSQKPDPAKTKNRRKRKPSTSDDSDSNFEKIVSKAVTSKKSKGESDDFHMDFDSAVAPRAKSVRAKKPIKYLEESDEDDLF

DNA topoisomerase II [18] = target: T1, DNA topoisomerase II (Homo sapiens, UniProt P11388+Q02880); test: Poison activity at topoisomerase-2 in human HepG2 cell lysate assessed as topoisomerase-2 band depletion after 3 hrs by Western blot analysis; format: subcellular
L02 [19] = test: Genotoxicity in human HL7702 cells assessed as induction of DNA damage by measuring tail DNA at 50 uM after 24 hrs by alkaline comet assay (reference value: 3 +/- 1.1 %); format: toxicity, cell-based; conditions: l02, 24 h
L02 [20] = test: Induction of DNA damage in human HL7702 cells assessed as effect on gamma-H2AX phosphorylation at 20 uM after 24 hrs by Alexa Fluor 488 staining based fluorescence assay; format: cell-based; conditions: l02, 24 h
L02 [21] = test: Genotoxicity in human HL7702 cells assessed as induction of DNA damage at 50 uM after 24 hrs by alkaline comet assay; format: toxicity, cell-based; conditions: l02, 24 h
Homo sapiens = species: Homo sapiens; test: Induction of PI3K/AKT phosphorylation in human HL7702 cells at 25 uM after 30 hrs by Western blot analysis; format: cell-based
L02 [22] = test: Induction of apoptosis in human HL7702 cells assessed as increase in BAX level at 25 uM after 30 hrs by Western blot analysis; format: cell-based; conditions: l02, 30 h
L02 [23] = test: Induction of apoptosis in human HL7702 cells assessed as increase in PARP cleavage at 25 uM after 30 hrs by Western blot analysis; format: cell-based; conditions: l02, 30 h
[24] = target: DNA topoisomerase 2-alpha (Homo sapiens) (UniProt P11388); test: Inhibition of human topoisomerase-2alpha mediated decatenation using kinetoplast DNA as substrate after 30 mins in presence of ATP by ethidium bromide staining-based UV imaging analysis
[25] = target: DNA topoisomerase 2-alpha (Homo sapiens) (UniProt P11388); test: Inhibition of human topoisomerase-2alpha mediated decatenation at 50 uM using kinetoplast DNA as substrate after 30 mins in presence of ATP by ethidium bromide staining-based UV imaging analysis relative to control
HepG2 [26] = test: Cell cycle arrest in human HepG2 cells assessed as accumulation at G2/M phase at 5 uM after 24 hrs by propidium staining based flow cytometry analysis; format: functional
HepG2 [27] = test: Cell cycle arrest in human HepG2 cells assessed as accumulation at G2/M phase at 15 uM after 36 hrs by propidium staining based flow cytometry analysis relative to control; format: functional
L02 [28] = test: Cell cycle arrest in human HL7702 cells assessed as accumulation at G2/M phase at 5 uM after 30 hrs by propidium staining based flow cytometry analysis relative to control; conditions: l02, 30 h
HepG2 [29] = test: Induction of apoptosis in human HepG2 cells assessed as apoptotic cells at 5 to 15 uM measured after 36 hrs by Annexin-V/propidium iodide staining based flow cytometry analysis relative to control; format: functional
HepG2 [30] = test: Induction of apoptosis in human HepG2 cells assessed as apoptotic cells at 10 uM measured after 42 hrs by Annexin-V/propidium iodide staining based flow cytometry analysis relative to control; format: functional
[31] = Acute toxicity in C57BL6 mouse assessed as effect on body weight at 100 mg/kg, ip administered for 20 days; format: organism-based; conditions: in vivo, 480 h
[32] = Acute toxicity in C57BL6 mouse assessed as effect on heart at 30 mg/kg, ip administered for 20 days and measured after 20 days by hematoxylin and eosin staining based assay; format: organism-based; conditions: in vivo, 480 h
[33] = Acute toxicity in C57BL6 mouse assessed as effect on liver at 30 mg/kg, ip administered for 20 days and measured after 20 days by hematoxylin and eosin staining based assay; format: organism-based; conditions: in vivo, 480 h
[34] = Acute toxicity in C57BL6 mouse assessed as effect on lung at 30 mg/kg, ip administered for 20 days and measured after 20 days by hematoxylin and eosin staining based assay; format: organism-based; conditions: in vivo, 480 h
[35] = Acute toxicity in C57BL6 mouse assessed as effect on kidney at 30 mg/kg, ip administered for 20 days and measured after 20 days by hematoxylin and eosin staining based assay; format: organism-based; conditions: in vivo, 480 h
[36] = Therapeutic index, ratio of LD50 for acute toxicity in ip dosed C57BL6 mouse assessed as mouse survival administered as single dose for 3 days and monitored for 20 days by Bliss method to ED50 for antitumor activity against human HepG2 xenografted in ip dosed BALB/c nude mouse administered for 20 days and measured after 20 days by electronic caliper method; format: organism-based; conditions: in vivo, read-out: TI
DNA topoisomerase II [37] = target: T1, DNA topoisomerase II; test: Poison activity at topoisomerase-2 in human HL7702 cell lysate assessed as reduction in topoisomerase-2 band depletion at 50 uM after 3 hrs by Western blot analysis; format: ADME, subcellular
HepG2 [38] = test: Induction of DNA damage in human HepG2 cells assessed as increase in H2AX phosphorylation at 20 uM after 24 hrs by Alexa Fluor 488 staining based fluorescence assay; format: functional, cell-based
L02 [39] = test: Genotoxicity in human HL7702 cells assessed as induction of DNA damage at 50 uM after 24 hrs in combination of teniposide by alkaline comet assay; format: toxicity, cell-based; conditions: l02, 24 h
L02 [40] = test: Cytotoxicity against human HL7702 cells assessed as inhibition of cell proliferation measured after 48 hrs by MTT assay relative to teniposide; format: cell-based; conditions: l02, 48 h
MRC5 [41] = test: Cytotoxicity against human MRC5 cells assessed as inhibition of cell proliferation measured after 48 hrs by MTT assay relative to teniposide; format: cell-based; conditions: mrc5, 48 h
HMEC [42] = test: Cytotoxicity against human HMEC cells assessed as inhibition of cell proliferation measured after 48 hrs by MTT assay relative to teniposide; format: cell-based

COc1cc([C@@H]2c3cc4c(cc3[C@@H](O[C@@H]3O[C@@H]5CO[C@@H](c6cccs6)O[C@H]5[C@H](O)[C@H]3O)[C@H]3COC(=O)[C@H]23)OCO4)cc(OC)c1O [TENIPOSIDE]
IC50 (HMEC [1]): 12.4 µM
IC50 (MCF7): 11.1 µM
IC50 (MRC5 [2]): 12.2 µM
IC50 (L02 [3]): 11.5 µM
IC50 (HepG2 [4]): 4.3 µM
IC50 (A549): 8.2 µM
IC50 (HeLa): 14.9 µM
IC50 [5]: 22.3 µM
Activity (HepG2 [6]): >20%
Activity (HepG2 [7]): 86%
Activity (L02 [8]): 84%
Activity (L02 [9]): Toxic
Activity (HepG2 [10]): 71%
Activity (L02 [11]): 88%
Activity [12]: Toxic
LD50 at 480 h [13]: 46.1 mg/kg
ED50 (HepG2 [14]): 40.5 mg/kg
Activity (HepG2 [15]): 259.15 mm3
inhibition in vivo at 30 mg/kg (HepG2 [16]): 48%
inhibition [17]: Active
IC50 (DNA topoisomerase II [18]): 62.7 µM
Activity (L02 [19]): 98.3%
Activity (L02 [20]): Toxic
Activity (L02 [21]): Toxic
Activity (Homo sapiens): inactive
Activity (L02 [22]): Toxic
Activity (L02 [23]): Toxic

COc1cc([C@@H]2c3cc4c(cc3[C@@H](O[C@@H]3O[C@@H]5CO[C@@H](c6cccs6)O[C@H]5[C@H](OC(=O)CSc5nc6cc(F)ccc6s5)[C@H]3NC(=O)CSc3nc5cc(F)ccc5s3)[C@H]3COC(=O)[C@H]23)OCO4)cc(OC)c1O
IC50 (HMEC [1]): 122 µM
IC50 (MCF7): 10.8 µM
IC50 (MRC5 [2]): 122 µM
IC50 (L02 [3]): 121 µM
inhibition [24]: Dose-dependent effect
inhibition [25]: 100%
IC50 (HepG2 [4]): 10.3 µM
IC50 (A549): 12.6 µM
IC50 (HeLa): 152 µM
IC50 [5]: 120 µM
Activity (HepG2 [26]): inactive
Activity (HepG2 [27]): 78%
Activity (L02 [28]): 40%
Activity (HepG2 [29]): 30 - 55%
Activity (HepG2 [30]): 55%
Activity (L02 [11]): 30%
Activity [31]: Non-Toxic
LD50 at 480 h [13]: 208 mg/kg
Activity [32]: Non-Toxic
Activity [33]: Non-Toxic
Activity [34]: Non-Toxic
Activity [35]: Non-Toxic
ED50 (HepG2 [14]): 32.6 mg/kg
Activity (HepG2 [15]): 446.35 mm3
inhibition in vivo at 30 mg/kg (HepG2 [16]): 73%
selectivity ratio at 20 days [36]: 6.39
inhibition [17]: Active
IC50 (DNA topoisomerase II [18]): 116.5 µM
Activity (DNA topoisomerase II [37]): Not Active
Activity (HepG2 [38]): Active
Activity (L02 [19]): 7.2%
Activity (L02 [20]): Toxic
Activity (L02 [39]): Toxic
fold change (FC) (L02 [40]): 10
fold change (FC) (MRC5 [41]): 10
fold change (FC) (HMEC [42]): 10
Activity (Homo sapiens): Active
Activity (L02 [22]): Non-Toxic
Activity (L02 [23]): Non-Toxic
